Data taken from patent US6740664B2, “Methods for treating otic and ophthalmic infections” (Alcon, Inc., priority 1998, dated 2004).
In brackets after ≈: the same amount, converted by molar mass. Read-outs that look alike come from different tables or passages of the source.

Columns and labels:
[1] = system: H influenzae/β-lactamase negative; assay: MIC90 against bacteria associated with otic, ophthalmic and nasal infections; type: cell-based
From the text: (§1) The concentrations of the antibiotics of formula (I) in the compositions of the present invention will vary depending on the intended use of the compositions (e.g., treatment of existing infections or prevention of post-surgical infections), and the relative antimicrobial activity of the specific antibiotic selected. The antimicrobial activity of antibiotics is generally expressed as the minimum concentration required to inhibit the growth of a specified pathogen. This concentration is also referred to as the “minimum inhibitory concentration” or “MIC”. The term “MIC90” refers to the minimum concentration of antibiotic required to inhibit the growth of ninety percent (90%) of the strains of a species. The concentration of an antibiotic required to totally kill a specified bacteria is referred to as the “minimum bactericidal concentration” or “MBC”.

[2] = system: S. pneumoniae/penicillin sensitive; assay: as above; type: cell-based
From the text: as §1

[3] = system: P. aeruginosa; assay: as above; type: cell-based
From the text: as §1

[4] = system: S. pneumoniae/penicillin resistant; assay: as above; type: cell-based
From the text: as §1

[5] = system: S. epidermidis/methicillin sensitive; assay: as above; type: cell-based
From the text: as §1

[6] = system: S. aureus/methicillin sensitive; assay: as above; type: cell-based
From the text: as §1

[7] = system: S. aureus/quinolone resistant; assay: as above; type: cell-based
From the text: as §1

[8] = system: S. aureus/methicillin resistant; assay: as above; type: cell-based
From the text: as §1

[9] = system: S. epidermidis/methicillin resistant; assay: as above; type: cell-based
From the text: as §1

[10] = system: H. influenzae/β-lactamase positive; assay: as above; type: cell-based
From the text: as §1

[11] = system: Microbacterium alconae; assay: In vitro MIC by agar and broth dilution methods (NCCLS M7-A4), clinical isolates; type: cell-based
Method: (§2) The activity levels were determined as MIC (minimum inhibitory concentration) values. In order to compare the activity of the compounds of the present invention to other antibiotics, MIC values for representatives quinolones, aminoglycosides, β-lactams and other types of antibiotics were also determined. […] The MCC numbers (e.g., “MCC 10647”) represent separate clinical isolates of the two Microbacterium species tested.

[12] = system: Microbacterium otitidis; assay: as above; type: cell-based
Method: as §2

[13] = system: M. alconae; assay: MIC90 against bacteria associated with otic, ophthalmic and nasal infections; type: cell-based, Microbacterium alconae
From the text: as §1

[14] = system: M. otitidis; assay: as above; type: cell-based, Microbacterium otitidis
From the text: as §1

[15] = Haemophilus influenzae, read-out: MIC90
[16] = Streptococcus pneumoniae, read-out: MIC90
[17] = Pseudomonas aeruginosa, read-out: MIC90
[18] = Staphylococcus epidermidis, read-out: MIC90
[19] = Staphylococcus aureus, read-out: MIC90
[20] = Microbacterium alconae clinical isolate MCC 11316
[21] = Microbacterium alconae clinical isolate MCC 11558
[22] = Microbacterium alconae clinical isolate MCC 11639
[23] = Microbacterium alconae clinical isolate MCC 11653
[24] = Microbacterium alconae clinical isolate MCC 11699
[25] = Microbacterium otitidis clinical isolate MCC 10647
[26] = Microbacterium otitidis clinical isolate MCC 10810
[27] = Microbacterium otitidis clinical isolate MCC 10990
[28] = Microbacterium otitidis clinical isolate MCC 11495
[29] = Microbacterium otitidis clinical isolate MCC 11676

For `COc1c(N2CCNC(C)C2)c(F)cc2c(=O)c(C(=O)O)cn(C3CC3)c12` (centres unmarked) [Gatifloxacin], the MIC90 [1, 15] was 0.06 µg/mL (≈ 0.16 µM), the MIC90 [2, 16] was 0.25 µg/mL (≈ 0.666 µM) and the MIC90 [3, 17] was 2 µg/mL (≈ 5.33 µM). The MIC90 [4, 16] was 0.25 µg/mL (≈ 0.666 µM), the MIC90 [5, 18] was 0.5 µg/mL (≈ 1.33 µM) and the MIC90 [6, 19] was 0.25 µg/mL (≈ 0.666 µM). The MIC90 [7, 19] was 8 µg/mL (≈ 21.3 µM), the MIC90 [8, 19] was 8 µg/mL (≈ 21.3 µM) and the MIC90 [9, 18] was 4 µg/mL (≈ 10.7 µM). It also gave an MIC90 [10, 15] of 0.06 µg/mL (≈ 0.16 µM).
With `N[C@@H]1[C@H]2CN(c3nc4c(cc3F)c(=O)c(C(=O)O)cn4-c3ccc(F)cc3F)C[C@@H]12` [Trovafloxacin] the MIC90 [1, 15] was 0.03 µg/mL (≈ 0.0721 µM), the MIC90 [2, 16] was 0.25 µg/mL (≈ 0.6 µM) and the MIC90 [3, 17] was 2 µg/mL (≈ 4.8 µM). The MIC90 [4, 16] was 0.25 µg/mL (≈ 0.6 µM), the MIC90 [5, 18] was 0.06 µg/mL (≈ 0.144 µM) and the MIC90 [6, 19] was 0.03 µg/mL (≈ 0.0721 µM). The MIC90 [7, 19] was 4 µg/mL (≈ 9.61 µM), the MIC90 [8, 19] was 2 µg/mL (≈ 4.8 µM) and the MIC90 [9, 18] was 4 µg/mL (≈ 9.61 µM). It also gave an MIC90 [10, 15] of 0.03 µg/mL (≈ 0.0721 µM).
In the case of Gentamicin, the “minimum inhibitory concentration (MIC)” value [11, 20] is reported as 2.0 micrograms per milliliter, the “minimum inhibitory concentration (MIC)” value [11, 21] is reported as 2.0 micrograms per milliliter and the “minimum inhibitory concentration (MIC)” value [11, 22] is reported as 2.0 micrograms per milliliter. For the same molecule, the “minimum inhibitory concentration (MIC)” value [11, 23] was 2.0 micrograms per milliliter, the “minimum inhibitory concentration (MIC)” value [11, 24] was 2.0 micrograms per milliliter and the “minimum inhibitory concentration (MIC)” value [12, 25] was 8.0 micrograms per milliliter. For the same molecule, the “minimum inhibitory concentration (MIC)” value [12, 26] was 4.0 micrograms per milliliter, the “minimum inhibitory concentration (MIC)” value [12, 27] was 4.0 micrograms per milliliter and the “minimum inhibitory concentration (MIC)” value [12, 28] was 16 micrograms per milliliter. For the same molecule, the “minimum inhibitory concentration (MIC)” value [12, 29] was 4.0 micrograms per milliliter.
For Grepafloxacin, the MIC90 [1] was 0.008 micrograms per milliliter, the MIC90 [2] was 0.25 micrograms per milliliter and the MIC90 [3] was 8.0 micrograms per milliliter. For the same molecule, the MIC90 [4] was 0.25 micrograms per milliliter, the MIC90 [5] was 0.13 micrograms per milliliter and the MIC90 [6] was 0.13 micrograms per milliliter. It also gave an MIC90 [7] of 0.13 micrograms per milliliter, an MIC90 [8] of 0.13 micrograms per milliliter and an MIC90 [9] of 0.13 micrograms per milliliter. For the same molecule, the MIC90 [10] was 0.008 micrograms per milliliter.
Moxifloxacin showed an MIC90 [13] of 0.25 micrograms per milliliter, an MIC90 [1] of 0.06 micrograms per milliliter and an MIC90 [2] of 0.25 micrograms per milliliter. For the same molecule, the MIC90 [3] was 8.0 micrograms per milliliter, the MIC90 [4] was 0.25 micrograms per milliliter and the MIC90 [5] was 0.25 micrograms per milliliter. The MIC90 [6] was 0.13 micrograms per milliliter, the MIC90 [7] was 4.0 micrograms per milliliter and the MIC90 [8] was 4.0 micrograms per milliliter. The MIC90 [9] was 4.0 micrograms per milliliter, the MIC90 [10] was 0.06 micrograms per milliliter and the MIC90 [14] was 2.0 micrograms per milliliter.
For Neomycin, the “minimum inhibitory concentration (MIC)” value [11, 20] was 1.0 micrograms per milliliter, the “minimum inhibitory concentration (MIC)” value [11, 21] was 1.0 micrograms per milliliter and the “minimum inhibitory concentration (MIC)” value [11, 22] was 1.0 micrograms per milliliter. The “minimum inhibitory concentration (MIC)” value [11, 23] was 1.0 micrograms per milliliter, the “minimum inhibitory concentration (MIC)” value [11, 24] was 1.0 micrograms per milliliter and the “minimum inhibitory concentration (MIC)” value [12, 25] was 8.0 micrograms per milliliter. For the same molecule, the “minimum inhibitory concentration (MIC)” value [12, 26] was 2.0 micrograms per milliliter, the “minimum inhibitory concentration (MIC)” value [12, 27] was 2.0 micrograms per milliliter and the “minimum inhibitory concentration (MIC)” value [12, 28] was 8.0 micrograms per milliliter. The “minimum inhibitory concentration (MIC)” value [12, 29] was 2.0 micrograms per milliliter.
For Polymyxin B, the “minimum inhibitory concentration (MIC)” value [11, 22] was 16 micrograms per milliliter, the “minimum inhibitory concentration (MIC)” value [11, 23] was 16 micrograms per milliliter and the “minimum inhibitory concentration (MIC)” value [11, 24] was 16 micrograms per milliliter. For the same molecule, the “minimum inhibitory concentration (MIC)” value [12, 26] was 260 micrograms per milliliter, the “minimum inhibitory concentration (MIC)” value [12, 27] was 260 micrograms per milliliter and the “minimum inhibitory concentration (MIC)” value [12, 29] was 16 micrograms per milliliter.
